{"source": "ChEMBL document CHEMBL1201862", "about": "“PubChem BioAssay data set” (2004)", "key": {"Genome polyprotein": {"target": "Genome polyprotein (Hepatitis C virus, UniProt Q2Q167)", "sequence (Q2Q167 whole entry)": "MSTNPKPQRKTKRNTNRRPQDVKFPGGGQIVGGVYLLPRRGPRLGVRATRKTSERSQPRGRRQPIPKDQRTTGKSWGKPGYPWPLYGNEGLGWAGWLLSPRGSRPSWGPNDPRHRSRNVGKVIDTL", "test": "HCV core protein dimerization inhibitors, dose response, biochemical, TR-FRET (AID 2159);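 further: blocks dimerization of HCV core protein measured by TR-FRET between tagged core106 pairs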", "set-up": "species or system Hepacivirus hominis"}, "Cytochrome P450 2C19": {"target": "Cytochrome P450 2C19 (Homo sapiens, UniProt P33261)", "sequence (P33261 whole entry)": "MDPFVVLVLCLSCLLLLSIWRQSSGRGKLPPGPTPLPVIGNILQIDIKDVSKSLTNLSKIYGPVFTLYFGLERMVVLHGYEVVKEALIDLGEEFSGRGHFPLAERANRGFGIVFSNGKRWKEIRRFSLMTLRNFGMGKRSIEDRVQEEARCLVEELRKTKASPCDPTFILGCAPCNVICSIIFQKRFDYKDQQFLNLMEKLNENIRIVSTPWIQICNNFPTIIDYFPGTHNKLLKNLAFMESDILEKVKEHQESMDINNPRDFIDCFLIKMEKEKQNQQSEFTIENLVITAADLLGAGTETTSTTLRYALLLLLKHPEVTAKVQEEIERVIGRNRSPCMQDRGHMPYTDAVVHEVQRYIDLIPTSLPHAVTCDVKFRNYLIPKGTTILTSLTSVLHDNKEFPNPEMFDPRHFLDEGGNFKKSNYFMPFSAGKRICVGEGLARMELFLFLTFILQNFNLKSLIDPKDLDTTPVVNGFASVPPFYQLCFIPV", "test": "Cytochrome panel assay with activity outcomes. Panel member name: p450-cyp2c19 Compounds with AC50 equal or less than 10 uM are considered active", "format": "functional", "details": "read-out: AC50"}, "[1]": {"target": "Protein-tyrosine kinase 2-beta (Homo sapiens, UniProt Q14289)", "sequence (Q14289 whole entry)": "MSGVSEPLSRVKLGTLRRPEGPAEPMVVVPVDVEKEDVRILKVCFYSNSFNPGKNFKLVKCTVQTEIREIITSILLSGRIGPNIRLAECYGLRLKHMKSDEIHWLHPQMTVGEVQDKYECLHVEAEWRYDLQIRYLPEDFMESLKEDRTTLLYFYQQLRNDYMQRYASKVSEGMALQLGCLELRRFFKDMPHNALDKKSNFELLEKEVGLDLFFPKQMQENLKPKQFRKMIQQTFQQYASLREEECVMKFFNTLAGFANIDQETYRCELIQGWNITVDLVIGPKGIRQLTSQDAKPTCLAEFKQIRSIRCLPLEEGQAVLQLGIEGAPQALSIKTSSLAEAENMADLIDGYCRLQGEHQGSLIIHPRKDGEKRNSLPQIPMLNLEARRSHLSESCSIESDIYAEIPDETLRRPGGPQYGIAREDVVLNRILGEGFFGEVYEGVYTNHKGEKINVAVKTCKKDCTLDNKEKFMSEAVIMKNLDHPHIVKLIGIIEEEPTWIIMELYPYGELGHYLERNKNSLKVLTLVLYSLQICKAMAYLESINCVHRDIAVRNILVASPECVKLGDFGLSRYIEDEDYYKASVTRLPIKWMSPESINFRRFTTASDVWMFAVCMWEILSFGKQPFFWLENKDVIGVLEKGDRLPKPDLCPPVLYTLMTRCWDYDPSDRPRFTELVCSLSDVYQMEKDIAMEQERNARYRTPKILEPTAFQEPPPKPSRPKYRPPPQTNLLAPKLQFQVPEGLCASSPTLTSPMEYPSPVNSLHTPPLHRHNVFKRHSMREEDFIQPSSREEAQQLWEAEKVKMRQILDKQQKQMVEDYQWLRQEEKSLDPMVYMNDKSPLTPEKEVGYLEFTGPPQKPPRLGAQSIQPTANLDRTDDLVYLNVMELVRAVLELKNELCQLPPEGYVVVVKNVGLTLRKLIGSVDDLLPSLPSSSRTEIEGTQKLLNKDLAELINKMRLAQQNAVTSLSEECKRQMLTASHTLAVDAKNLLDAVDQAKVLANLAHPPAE"}, "[2]": {"test": "Artemis endonuclease inhibitor potency, dose response, biochemical, fluorescence intensity (AID 720701);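 further: Artemis endonuclease enzyme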", "format": "functional"}, "[3]": {"target": "T1, Apoptotic protease-activating factor 1 (Homo sapiens, UniProt O14727)", "T1 sequence (O14727 whole entry)": "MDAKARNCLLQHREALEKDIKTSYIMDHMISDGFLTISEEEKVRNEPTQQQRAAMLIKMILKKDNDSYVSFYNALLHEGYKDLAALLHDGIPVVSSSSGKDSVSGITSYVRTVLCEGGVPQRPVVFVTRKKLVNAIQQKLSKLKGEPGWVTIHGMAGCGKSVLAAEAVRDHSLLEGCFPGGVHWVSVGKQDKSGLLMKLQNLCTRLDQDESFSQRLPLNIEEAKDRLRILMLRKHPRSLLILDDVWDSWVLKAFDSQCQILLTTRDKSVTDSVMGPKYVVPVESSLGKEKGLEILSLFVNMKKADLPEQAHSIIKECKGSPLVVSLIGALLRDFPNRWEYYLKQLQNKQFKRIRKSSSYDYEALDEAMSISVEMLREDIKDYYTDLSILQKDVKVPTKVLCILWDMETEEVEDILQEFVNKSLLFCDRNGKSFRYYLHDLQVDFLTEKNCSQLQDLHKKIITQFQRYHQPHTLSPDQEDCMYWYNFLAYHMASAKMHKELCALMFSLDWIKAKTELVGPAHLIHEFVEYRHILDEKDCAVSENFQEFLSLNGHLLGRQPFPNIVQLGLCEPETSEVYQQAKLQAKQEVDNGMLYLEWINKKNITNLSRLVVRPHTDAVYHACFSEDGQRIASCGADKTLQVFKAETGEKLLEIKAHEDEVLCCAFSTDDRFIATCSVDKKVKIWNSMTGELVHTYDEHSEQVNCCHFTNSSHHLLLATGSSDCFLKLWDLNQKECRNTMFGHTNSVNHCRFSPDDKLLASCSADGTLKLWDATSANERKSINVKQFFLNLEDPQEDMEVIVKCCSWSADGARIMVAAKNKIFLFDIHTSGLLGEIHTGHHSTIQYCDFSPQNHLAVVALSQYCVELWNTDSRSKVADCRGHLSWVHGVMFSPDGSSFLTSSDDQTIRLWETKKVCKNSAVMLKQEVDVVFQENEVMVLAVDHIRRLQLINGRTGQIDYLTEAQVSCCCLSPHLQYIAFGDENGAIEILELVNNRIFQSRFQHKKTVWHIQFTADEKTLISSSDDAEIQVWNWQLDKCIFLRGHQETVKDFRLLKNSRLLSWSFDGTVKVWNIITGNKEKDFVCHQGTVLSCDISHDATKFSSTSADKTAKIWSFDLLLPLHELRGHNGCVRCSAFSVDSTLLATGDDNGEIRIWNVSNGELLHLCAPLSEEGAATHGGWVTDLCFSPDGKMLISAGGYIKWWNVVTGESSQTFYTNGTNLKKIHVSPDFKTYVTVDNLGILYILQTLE", "test": "activation of Apaf-1 mediated apoptosis – fluorescent, uHTS hits, dose response (AID 588554)", "format": "functional"}, "[4]": {"target": "DNA (cytosine-5)-methyltransferase 1 (Homo sapiens, UniProt P26358)", "sequence (P26358 whole entry)": "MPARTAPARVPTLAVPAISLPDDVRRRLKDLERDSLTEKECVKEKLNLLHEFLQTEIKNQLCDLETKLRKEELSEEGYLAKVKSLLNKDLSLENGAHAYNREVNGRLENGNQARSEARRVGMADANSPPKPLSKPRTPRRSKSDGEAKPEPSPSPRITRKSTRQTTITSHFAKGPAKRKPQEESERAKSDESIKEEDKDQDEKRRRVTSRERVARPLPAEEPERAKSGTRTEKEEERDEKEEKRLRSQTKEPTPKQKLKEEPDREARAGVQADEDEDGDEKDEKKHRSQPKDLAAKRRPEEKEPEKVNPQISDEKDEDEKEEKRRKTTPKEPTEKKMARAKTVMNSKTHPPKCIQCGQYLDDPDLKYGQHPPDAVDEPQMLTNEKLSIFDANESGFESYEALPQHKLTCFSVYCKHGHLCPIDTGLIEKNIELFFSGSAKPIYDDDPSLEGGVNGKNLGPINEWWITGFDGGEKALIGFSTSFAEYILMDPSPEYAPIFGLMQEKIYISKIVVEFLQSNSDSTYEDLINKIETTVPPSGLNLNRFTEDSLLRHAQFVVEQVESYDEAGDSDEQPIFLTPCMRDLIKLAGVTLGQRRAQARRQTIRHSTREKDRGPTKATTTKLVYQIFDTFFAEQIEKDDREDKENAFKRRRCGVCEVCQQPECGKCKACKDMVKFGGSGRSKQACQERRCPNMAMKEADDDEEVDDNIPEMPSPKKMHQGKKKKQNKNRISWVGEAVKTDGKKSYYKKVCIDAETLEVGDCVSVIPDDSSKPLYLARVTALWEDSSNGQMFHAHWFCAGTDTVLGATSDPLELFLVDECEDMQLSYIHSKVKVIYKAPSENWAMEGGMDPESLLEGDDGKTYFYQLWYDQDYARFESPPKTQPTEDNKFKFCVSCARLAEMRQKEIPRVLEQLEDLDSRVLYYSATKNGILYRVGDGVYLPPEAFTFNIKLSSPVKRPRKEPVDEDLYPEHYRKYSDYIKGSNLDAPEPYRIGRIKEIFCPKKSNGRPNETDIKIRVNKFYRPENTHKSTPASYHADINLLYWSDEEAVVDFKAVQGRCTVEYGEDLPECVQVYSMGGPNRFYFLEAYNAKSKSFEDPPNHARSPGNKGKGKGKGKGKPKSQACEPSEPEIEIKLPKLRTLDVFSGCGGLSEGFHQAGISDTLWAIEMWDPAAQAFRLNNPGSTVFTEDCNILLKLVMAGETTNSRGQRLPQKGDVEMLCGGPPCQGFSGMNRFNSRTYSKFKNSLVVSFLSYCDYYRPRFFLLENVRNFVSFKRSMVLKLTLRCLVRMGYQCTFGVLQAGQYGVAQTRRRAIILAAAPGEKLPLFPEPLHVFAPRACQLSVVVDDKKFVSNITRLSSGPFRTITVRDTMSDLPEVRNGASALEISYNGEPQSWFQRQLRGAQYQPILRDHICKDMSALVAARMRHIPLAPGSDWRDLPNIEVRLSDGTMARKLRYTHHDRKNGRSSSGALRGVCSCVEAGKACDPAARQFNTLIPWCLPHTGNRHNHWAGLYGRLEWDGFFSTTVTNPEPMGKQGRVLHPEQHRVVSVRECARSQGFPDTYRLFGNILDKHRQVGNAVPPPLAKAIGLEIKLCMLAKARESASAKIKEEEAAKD", "test": "DNMT1 methyltransferase inhibitors, confirmation, biochemical, fluorescent molecular beacon (AID 602386)", "format": "functional"}, "[5]": {"target": "T2, Tyrosine-protein phosphatase non-receptor type 12 (Homo sapiens, UniProt Q05209)", "T2 sequence (Q05209 whole entry)": "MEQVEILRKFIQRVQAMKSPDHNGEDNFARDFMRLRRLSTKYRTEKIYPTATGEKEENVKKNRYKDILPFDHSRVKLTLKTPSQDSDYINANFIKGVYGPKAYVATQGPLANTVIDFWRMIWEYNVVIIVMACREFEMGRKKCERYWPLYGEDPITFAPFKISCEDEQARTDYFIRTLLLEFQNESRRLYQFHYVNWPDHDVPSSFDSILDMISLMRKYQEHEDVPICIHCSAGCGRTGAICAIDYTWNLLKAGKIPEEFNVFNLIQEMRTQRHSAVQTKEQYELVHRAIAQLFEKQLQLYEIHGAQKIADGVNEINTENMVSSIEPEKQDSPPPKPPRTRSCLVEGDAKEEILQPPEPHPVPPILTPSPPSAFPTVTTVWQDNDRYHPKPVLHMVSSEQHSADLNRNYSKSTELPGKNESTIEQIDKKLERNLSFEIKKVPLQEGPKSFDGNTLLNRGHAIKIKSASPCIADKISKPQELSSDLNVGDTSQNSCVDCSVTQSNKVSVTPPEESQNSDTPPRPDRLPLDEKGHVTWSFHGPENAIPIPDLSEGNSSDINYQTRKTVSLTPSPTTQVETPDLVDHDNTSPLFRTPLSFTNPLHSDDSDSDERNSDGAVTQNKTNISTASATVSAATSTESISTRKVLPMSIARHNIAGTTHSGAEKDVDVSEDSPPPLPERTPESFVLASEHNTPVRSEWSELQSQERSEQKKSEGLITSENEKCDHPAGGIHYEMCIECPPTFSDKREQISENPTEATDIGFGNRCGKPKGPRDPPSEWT", "test": "SAR Selectivity Analysis of small molecule inhibitors of PEST using pCAP in a fluorescence assay. [Related pubchem assays (depositor defined):AID1779, AID1784, AID2135]", "format": "functional"}}, "note": "“And” between values parts separate entries of the source, which are not always exact repeats. Identical values can stand only once. The source made the active and inactive calls.", "data": [{"smiles": "Nc1ccc2nc3c(O)nc(S)nc3nc2c1", "values": [{"measurement": "IC50", "setting": "Genome polyprotein", "result": "> 49.8 µM (not active)"}]}, {"smiles": "COc1ccc(C(=O)Nc2nc3c(s2)Cc2cc(OC)ccc2-3)cc1", "values": [{"measurement": "AC50", "setting": "Cytochrome P450 2C19", "result": "5.01 µM (inconclusive)"}]}, {"smiles": "Cc1oc2c(c1C(=O)c1ccccc1)C(=O)C(=O)c1ccccc1-2", "values": [{"measurement": "IC50", "setting": "[1]", "result": "> 69.5 µM (not active)"}, {"measurement": "IC50", "setting": "[2]", "result": "1.48 µM (active)"}]}, {"smiles": "CSc1ccc(C=NNc2ccc(S(=O)(=O)Nc3ccccc3C(=O)O)cc2[N+](=O)[O-])cc1", "values": [{"measurement": "EC50", "setting": "[3]", "result": "8.23 µM (active)"}, {"measurement": "IC50", "setting": "[4]", "result": "3.26 µM (active)"}]}, {"smiles": "O=C(O)COc1ccc(/C=N/NC(=O)c2ccc(-c3csc(Nc4ccc(Cl)cc4)n3)cc2)cc1", "values": [{"measurement": "IC50", "setting": "[5]", "result": "334 nM (active) and 325 nM (active)"}]}]}
